Where no end group is shown, it is not given here.
Target: DR4 (DRB1*0401) (Homo sapiens, UniProt P01903+P01911, A100K/A169T/F76Y/I96L/K127E/L162R/M171V/N62H/P40V/Q125Y/R42H/S133A/S149N/S66Y/V115G/V209L/W38E)
Experiment: Peptide HLA-DR binding assay (semi-quantitative competition with biotinylated marker peptide)
Settings: read-out: DRB1*0401 ^eIC50
Experimental: Two EBV-transformed B-cell lines, BSM (typed as DR4 [DRB1*0401] and BM92 (typed as DR4 [DRB1*0404) were provided by Dr. M. Oudshoom from the Academic Hospital Leiden, the Netherlands. The cells were cultured in Dulbecco's modified eagles minimal essential medium DMEM/HAM's F12 (Gibco Laboratories, Grand Island, NY) supplemented with 10% FCS (Hyclone Laboratories), 1% non-essential amino acids (ICI), L-glutamine, 2-ME and antibiotics. Cells were routinely passaged every 2-3 days in a 1:2 ratio. Cells were harvested and thereafter washed three times in phosphate buffer saline (PBS) (4°C) containing 1 mM PMSF. Cell pellets were stored at -70°C until use. HLA-DR expressing cells were thawed and lysed on ice for 30 minutes in PBS, 1% NP-40, 1 mM AEBSF (Calbiochem). The lysate was cleared of nuclei and debris by centrifugation at 15.000 rpm (Sorvall, SS34 rotor) for 30 minutes.
HLA-DR molecules were affinity purified from cell lysates using monoclonal antibody L243 (ATCC), directed against a nonpolymorphic determinant on the DR-complex (Lampson et al., J. Immunol. 125:293, 1980). Protein G sepharose purified L243 was coupled to NHS-Sepharose 4 FF (Pharmacia) according to the manufactures instructions. The cleared cell-lysate was passed through a 0.45 µm filter and added to L243-NHS-sepharose beads. […] Collected fractions were analysed on SDS-PAGE under non-reducing conditions followed by silver staining. […]
The peptide binding studies were performed using a semi-quantitative binding assay as described previously (Joosten et al., Int. Immunol. 6:751, 1994).
After approximately 48 hours incubation at room temperature, bound and unbound marker peptides were separated by SDS-PAGE under non-reducing conditions. […] Biotinylated peptides were detected by enhanced chemoluminescence using a Westem Blot ECL kit (Amersham, U.K.) according to the manufactures instructions. […]

| IC50 | Sequence |
| --- | --- |
| 10 to 100 µM | AGWLSDGSVQYPI [HCLP1] |
| 1 to 10 µM | AGWLADRSVRYPI [HAG2] |
| 1 to 10 µM | AGWLADGSLRYPI [HAG3] |
